Assay results from patent US9556231B2, “Beta-hairpin peptidomimetics as CXC4 antagonists” (POLYPHOR AG, priority 2011, dated 2017).
Bridge positions count the residues as written; N and C are the ends. Square brackets hold non-standard residues; d marks the D form. Peptide text beside a SMILES is read from it. Lys(iPr) = CC(C)NCCCC[C@H](N)C(=O)O; Orn(iPr) = CC(C)NCCC[C@H](N)C(=O)O

What was measured:
[1] = Cytotoxicity, MTT reduction assay, HELA cells; format: cell-based; conditions: human
Procedure: (§1) Namalwa cells (CXCR4 natively expressing non-adherent cells, ATCC CRL-1432) were cultured in RPMI1640 plus 10% FBS, and pen/strept. HELA cells were maintained in RPMI1640 plus 10% FBS, pen/strept and 2 mM L-glutamine. Cos-7 cells were grown in DMEM medium with […] glucose supplemented with 10% FCS, pen/strept and 2 mM L-glutamine. All cell lines were grown at 37° C. at 5% CO2. Cell media, media supplements, PBS-buffer, HEPES, antibiotic/antimycotic, pen/strept, non essential amino acid, L-glutamine, β-mercaptoethanol and sera were purchased from Gibco (Pailsey, UK). All fine chemicals were supplied by Merck (Darmstadt, Germany).
(§2) The cytotoxicity of the peptides to HELA cells (Acc57) and COS-7 cells (CRL-1651) was determined using the MTT reduction assay (T. Mossman, J. Immunol. Meth. 1983, 65, 55-63; M. V. Berridge, A. S. Tan, Arch. Biochem. Biophys. 1993, 303, 474-482). Briefly, the method was as follows: 4000 HELA cells/well and 3400 COS-7 cells/well were seeded and grown in 96-well microtiter plates for 24 h at 37° C. at 5% CO2. Thereafter, time zero (Tz) was determined by MTT reduction (see below). The supernatant of the remaining wells was discarded, and fresh medium and compounds in serial dilutions (12.5, 25 and 50 μM, triplicates; 0 μM, blank) were pipetted into the wells. After incubation of the cells for 48 h at 37° C. at 5% CO2 the supernatant was discarded again and 100 μL MTT reagent (0.5 mg/mL in RPMI1640 and DMEM, respectively)/well was added. Following incubation at 37° C. for 2-4 h the media were aspirated and the cells were spiked (100 μL isopropanol/well). The absorbance of the solubilized formazan was measured at 595 nm (OD595peptide). For each concentration averages were calculated from triplicates. The percentage of growth was calculated as follows: (OD595peptide−OD595Tz)/(OD595blank−OD595Tz)×100%. The GI50 (Growth Inhibition) concentrations were calculated for each peptide by using a trend line function for the concentrations (50, 25, 12.5 and 0 μM), the corresponding percentages and the value 50, (=TREND (C50:C0,%50:%0,50).

[2] = Cytotoxicity, MTT reduction assay, COS-7 cells; format: cell-based; conditions: African green monkey
Procedure: as §1, §2

[3] = Plasma stability, human plasma; format: in vitro ADME; conditions: 37° C., 1440 min, read-out: human pl. cpd left at 1440 min
Procedure: The stability of the peptides in human and mouse plasma was determined by applying the following method: 346.5 μL/deep well of freshly thawed human plasma (Basler Blutspende-dienst) and mouse plasma (Harlan Sera-Lab, UK), respectively, were spiked with 3.5 μL/well of compound dissolved in DMSO/H2O (90/10 [v/v], 1 mM, triplicate) and incubated at 37° C. At t=0, 15, 30, 60, 120, 240 and 1440 min aliquots of 50 μL were transferred to filtration plate wells containing 150 μL/well of 2% formic acid in acetonitrile. Following shaking for 2 min the occurred suspensions were filtrated by vacuum. 100 μL of each filtrate were transferred to a propylene microtiter plate and dried under N2. The residual solids were reconstituted by adding 100 μL/well of water/acetonitrile, 95/5 (v/v)+0.2% formic acid and analyzed by LC/MS as follows: Column: Waters, XBridge C18, mobile phases: (A) water+0.1% formic acid and (B) acetonitrile/water, 95/5 (v/v)+0.1% formic acid, gradient: 5%-100% (B) in 1.8 minutes, electrospray ionization, MRM detection (triple quadrupole). The peak areas were determined and triplicate values are averaged. The stability is expressed in percent of the initial value at t=0·(tx/t0×100). By using the TREND function of EXCEL (Microsoft Office 2003) T1/2 were determined.

[4] = Pharmacokinetic study (PK), i.v., CD-1 mice; format: in vivo; conditions: mouse, i.v. 1 mg/kg; for level at 0.083 h / level at 0.25 h / level at 0.5 h / level at 1 h / level at 2 h / level at 3 h / level at 4 h / AUC(0-inf) / Cmax / clearance / half-life / Vd: male, CD-1, in vivo, iv; for level at 0.083 h / level at 0.25 h / level at 0.5 h / level at 1 h / level at 2 h / level at 3 h / level at 4 h: read-out: Calc. Conc. (plasma); for AUC(0-inf) / Cmax / clearance / half-life / Vd: one-compartmental model; for Vd: read-out: Vdis
Procedure: For the compounds of Ex. 1, Ex. 2, Ex. 3, Ex. 4, Ex. 5 and Ex. 6 pharmacokinetic studies after intravenous (i.v.) administration were performed.
30 grams (±20%) male CD-1 mice obtained from Charles River Laboratories Deutschland GmbH were used. The vehicle, phosphate buffered saline, was added to give a final concentration of 0.5 mg/mL of the compound. The volume was 2 mL/kg and the compound was injected to give a final intravenous dose of 1 mg/kg. Approximately 300-400 μL of blood was removed under light isoflurane anesthesia by cardiac puncture at predetermined time intervals (5, 15, 30 min and 1, 2, 3, 4, hours) and added to heparinized tubes. Plasma was removed from pelleted cells upon centrifugation and frozen at −80° C. prior to HPLC-MS analysis.
Aliquots of 50 μL each of mouse plasma of untreated aminals (“blank” mouse plasma) were spiked with known amounts of the compounds Ex. 1, Ex. 2, Ex. 3, Ex. 4, Ex. 5 and Ex. 6 in order to obtain 10 plasma calibration samples for each compound in the range 1-4000 ng/mL. Aliquots of 50 μL each of mouse plasma from treated animals were used as plasma study samples.
All plasma samples were spiked with an appropriate internal standard and extracted with acetonitrile containing 2% formic acid. Supernatants were evaporated to dryness under nitrogen and the remaining solids reconstituted in water/acetonitrile 95/5 (v/v)+0.2% formic acid.
Extracts were then analyzed by reverse-phase chromatography (Acquity BEH C18, 100×2.1 mm, 1.7 μm column, Waters for Ex. 1 and Acquity HSS C18 SB, 100×2.1 mm, 1.8 μm column, Waters for Ex. 2, Ex. 3, Ex. 4, Ex. 5 and Ex. 6), using the following conditions: Ex. 1, mobile phases: (A) water/acetonitrile 95/5 (v/v)+0.1% formic acid, (B) acetonitrile/water 95/5 (v/v)+0.1% formic acid, gradient: 1% (B) 0-0.1 min, 15% (B) 0.1-2.5 min for Ex. 1 and 1% (B) 0-0.1 min, 40% (B) 0.1-2.5 min for Ex. 2, Ex. 3, Ex. 4, Ex. 5 and Ex. 6. The detection and quantification was performed by mass spectrometry, with electrospray interface in positive mode and selective fragmentation of analytes (4000 Q Trap mass spectrometer, AB Sciex).
PK parameters were calculated by WinNonLin™ software version 5.3 (Pharsight-A Certara™ Company, Mountain View, Calif. 94041 USA) using a one-compartmental model analysis. PK parameters were determined by least-square fitting of the model to the experimental data.

[5] = MTT, 48 h, up to 50 μM, read-out: Cytotoxicity Hela Cells GI50
[6] = MTT, 48 h, up to 50 μM, read-out: Cytotoxicity Cos-7 Cells GI50

Row | Structure (SMILES) | GI50 at 48 h [1] [µM] | GI50 at 48 h [2] [µM] | remaining at 24 h [3] [%] | level at 0.083 h [4] [ng/mL] | level at 0.25 h [4] [ng/mL] | level at 0.5 h [4] [ng/mL] | level at 1 h [4] [ng/mL] | level at 2 h [4] [ng/mL] | level at 3 h [4] [ng/mL] | level at 4 h ([4]; 4 h) [ng/mL] | AUC(0-inf) [4] [ng·h/mL] | Cmax [4] [ng/mL] | clearance [4] [mL/min/kg] | half-life [4] [min] | Vd [4] [L/kg] | GI50 at 48 h [1, 5] [µM] | GI50 at 48 h [2, 6] [µM] | remaining at 24 h, 10 μM [3] [%] | Calc. Conc. (plasma) ([4]; 4 h) [ng/mL]
1 | COc1ccc(C[C@H]2NC(=O)[C@H](C)NC(=O)[C@H](CO)NC(=O)[C@@H]3CSSC[C@H](NC(=O)[C@H](Cc4ccc(O)cc4)NC(=O)[C@H](CCCNC(=N)N)NC(=O)[C@H](CCCNC(C)C)NC2=O)C(=O)N[C@@H](Cc2ccc(O)cc2)C(=O)N[C@@H](CCC(N)=O)C(=O)N[C@@H](CCCCNC(C)C)C(=O)N2CCC[C@@H]2C(=O)N2CCC[C@H]2C(=O)N[C@@H](Cc2ccc(O)cc2)C(=O)N[C@@H](Cc2c[nH]cn2)C(=O)N[C@@H](C)C(=O)N3)cc1 [Ex. 4, cyclo(-Tyr^1-His^2-Ala^3-Cys^4-Ser^5-Ala^6-^DTyr(Me)^7-Orn(iPr)^8-Arg^9-Tyr^10-Cys^11-Tyr^12-Gln^13-Lys(iPr)^14-^DPro^15-Pro^16-), disulfide bond between Cys^4 and Cys^11] (cyclo(YHACSA[dY](Me)[Orn(iPr)]RYCYQ[Lys(iPr)][dP]P); disulfide 4-11) | > 50 | > 50 | 94 | 1620 | 869 | 775 | 504 | 159 | 25 | 13 | 1340 | 1620 | 12.4 | 36 | 0.607 |  |  |  | 
2 | CC(C)NCCCC[C@@H]1NC(=O)[C@H](CCC(N)=O)NC(=O)[C@H](Cc2ccc(O)cc2)NC(=O)[C@@H]2CSSC[C@H](NC(=O)[C@H](Cc3ccc(O)cc3)NC(=O)[C@H](Cc3c[nH]cn3)NC(=O)[C@H](Cc3ccc(O)cc3)NC(=O)[C@@H]3CCCN3C(=O)[C@H]3CCCN3C1=O)C(=O)N[C@@H](CO)C(=O)N[C@@H](C)C(=O)N[C@H](Cc1ccc(O)cc1)C(=O)N[C@@H](CCCNC(C)C)C(=O)N[C@@H](CCCNC(=N)N)C(=O)N[C@@H](Cc1ccc(O)cc1)C(=O)N2 [Ex. 5, cyclo(-Tyr^1-His^2-Tyr^3-Cys^4-Ser^5-Ala^6-^DTyr^7-Orn(iPr)^8-Arg^9-Tyr^10-Cys^11-Tyr^12-Gln^13-Lys(iPr)^14-^DPro^15-Pro^16-), disulfide bond between Cys^4 and Cys^11] (cyclo(YHYCSA[dY][Orn(iPr)]RYCYQ[Lys(iPr)][dP]P); disulfide 4-11) |  |  |  | 1310 | 984 | 350 | 503 | 150 | 49 | 33 | 1200 | 1310 | 13.9 | 54 | 1.04 | > 50 | > 50 | 92 | 
3 | COc1ccc(C[C@@H]2NC(=O)[C@H](Cc3c[nH]cn3)NC(=O)[C@H](Cc3ccc(O)cc3)NC(=O)[C@@H]3CCCN3C(=O)[C@H]3CCCN3C(=O)[C@H](CCCCNC(C)C)NC(=O)[C@H](CCC(N)=O)NC(=O)[C@H](Cc3ccc(O)cc3)NC(=O)[C@@H]3CSSC[C@H](NC2=O)C(=O)N[C@@H](CO)C(=O)N[C@@H](C)C(=O)N[C@H](Cc2ccc(OC)cc2)C(=O)N[C@@H](CCCNC(C)C)C(=O)N[C@@H](CCCNC(=N)N)C(=O)N[C@@H](Cc2ccc(O)cc2)C(=O)N3)cc1 [Ex. 6, cyclo(-Tyr^1-His^2-Tyr(Me)^3-Cys^4-Ser^5-Ala^6-^DTyr(Me)^7-Orn(iPr)^8-Arg^9-Tyr^10-Cys^11-Tyr^12-Gln^13-Lys(iPr)^14-^DPro^15-Pro^16-), disulfide bond between Cys^4 and Cys^11] (cyclo(YHY(Me)CSA[dY](Me)[Orn(iPr)]RYCYQ[Lys(iPr)][dP]P); disulfide 4-11) |  |  |  | 686 | 435 | 215 | 75 | 36 | 13 |  | 409 | 686 | 40.8 | 48 | 2.98 | > 50 | > 50 | 83 | 7
